For 11 molecules, Activity results are on record in ChEMBL document CHEMBL1743201, “Casarett and Doull's Toxicology The Basic Science of Poisons, 7th edition” (2008).

What all share (format): ADME
For series [1], the target named is T1, UDP-glucuronosyltransferase 1A6 (Homo sapiens, UniProt P19224).
T1 sequence (P19224 whole entry): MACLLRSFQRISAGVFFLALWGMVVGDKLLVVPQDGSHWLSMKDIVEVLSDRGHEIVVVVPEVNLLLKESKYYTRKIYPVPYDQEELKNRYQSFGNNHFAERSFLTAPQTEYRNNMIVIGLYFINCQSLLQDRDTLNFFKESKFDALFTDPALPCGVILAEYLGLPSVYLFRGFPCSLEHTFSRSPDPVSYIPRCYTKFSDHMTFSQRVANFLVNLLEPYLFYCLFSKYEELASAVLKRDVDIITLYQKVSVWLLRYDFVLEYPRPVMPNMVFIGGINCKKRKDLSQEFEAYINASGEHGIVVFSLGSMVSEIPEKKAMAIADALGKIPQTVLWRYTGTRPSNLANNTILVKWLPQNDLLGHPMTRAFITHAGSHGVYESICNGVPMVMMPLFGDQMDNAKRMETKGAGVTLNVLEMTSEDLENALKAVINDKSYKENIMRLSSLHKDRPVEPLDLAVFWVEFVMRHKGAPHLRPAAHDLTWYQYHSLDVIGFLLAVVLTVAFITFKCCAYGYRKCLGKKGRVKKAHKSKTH
Kind of series: Substrate of human UDP-glucuronosyltransferase UGT1A6.

Series [2] has as its target T2, UDP-glucuronosyltransferase 2B15 (Homo sapiens, UniProt P54855).
T2 sequence (P54855 whole entry): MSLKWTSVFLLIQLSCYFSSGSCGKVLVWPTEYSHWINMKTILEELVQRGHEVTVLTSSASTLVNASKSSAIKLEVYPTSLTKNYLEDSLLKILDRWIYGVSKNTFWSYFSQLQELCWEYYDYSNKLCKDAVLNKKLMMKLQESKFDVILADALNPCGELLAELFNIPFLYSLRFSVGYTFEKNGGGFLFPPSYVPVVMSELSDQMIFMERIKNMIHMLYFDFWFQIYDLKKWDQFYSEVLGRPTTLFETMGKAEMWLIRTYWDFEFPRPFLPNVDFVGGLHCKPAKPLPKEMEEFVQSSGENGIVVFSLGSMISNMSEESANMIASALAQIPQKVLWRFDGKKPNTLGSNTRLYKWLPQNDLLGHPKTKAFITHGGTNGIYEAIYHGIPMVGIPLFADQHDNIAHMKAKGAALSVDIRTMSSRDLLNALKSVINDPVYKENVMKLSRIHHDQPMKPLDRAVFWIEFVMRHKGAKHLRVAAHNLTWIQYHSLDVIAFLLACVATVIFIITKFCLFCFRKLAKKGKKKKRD
Kind of series: Substrate of human UDP-glucuronosyltransferase UGT2B15.

The target of series [3] is T3, UDP-glucuronosyltransferase 1A7 (Homo sapiens, UniProt Q9HAW7).
T3 sequence (Q9HAW7 whole entry): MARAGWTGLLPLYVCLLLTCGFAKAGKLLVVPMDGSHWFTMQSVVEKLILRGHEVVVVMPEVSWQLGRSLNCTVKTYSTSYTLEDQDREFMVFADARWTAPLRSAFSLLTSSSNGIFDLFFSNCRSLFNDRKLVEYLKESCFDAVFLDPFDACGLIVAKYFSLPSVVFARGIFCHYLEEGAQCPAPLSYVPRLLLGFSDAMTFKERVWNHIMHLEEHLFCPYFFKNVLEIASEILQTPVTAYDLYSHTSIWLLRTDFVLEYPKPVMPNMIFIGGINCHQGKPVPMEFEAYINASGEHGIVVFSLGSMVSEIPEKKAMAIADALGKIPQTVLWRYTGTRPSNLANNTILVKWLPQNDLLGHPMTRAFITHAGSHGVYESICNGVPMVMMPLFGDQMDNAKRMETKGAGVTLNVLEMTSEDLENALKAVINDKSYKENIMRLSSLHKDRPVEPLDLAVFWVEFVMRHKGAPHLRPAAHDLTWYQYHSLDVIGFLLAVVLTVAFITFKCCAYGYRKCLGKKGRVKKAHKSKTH
Description: Substrate of human UDP-glucuronosyltransferase UGT1A7.

In series [4] the target is T4, UDP-glucuronosyltransferase 2B4 (Homo sapiens, UniProt P06133).
T4 sequence (P06133 whole entry): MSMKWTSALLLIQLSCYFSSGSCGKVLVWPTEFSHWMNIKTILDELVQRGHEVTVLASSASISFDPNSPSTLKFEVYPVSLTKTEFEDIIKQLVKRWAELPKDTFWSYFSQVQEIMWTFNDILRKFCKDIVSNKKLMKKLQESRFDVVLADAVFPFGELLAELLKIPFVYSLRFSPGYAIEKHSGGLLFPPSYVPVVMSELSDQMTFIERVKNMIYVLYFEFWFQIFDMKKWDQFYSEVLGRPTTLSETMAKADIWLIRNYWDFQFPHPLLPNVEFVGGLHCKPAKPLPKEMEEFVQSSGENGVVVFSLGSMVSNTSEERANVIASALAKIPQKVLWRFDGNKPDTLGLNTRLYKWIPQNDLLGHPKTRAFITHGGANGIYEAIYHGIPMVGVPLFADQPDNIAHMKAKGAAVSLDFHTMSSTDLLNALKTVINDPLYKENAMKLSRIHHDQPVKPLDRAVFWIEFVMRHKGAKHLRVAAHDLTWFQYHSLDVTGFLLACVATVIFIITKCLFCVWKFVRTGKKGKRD
Kind of series: Substrate of human UDP-glucuronosyltransferase UGT2B4.

Series [5] has as its target T5, UDP-glucuronosyltransferase 1A8 (Homo sapiens, UniProt Q9HAW9).
T5 sequence (Q9HAW9 whole entry): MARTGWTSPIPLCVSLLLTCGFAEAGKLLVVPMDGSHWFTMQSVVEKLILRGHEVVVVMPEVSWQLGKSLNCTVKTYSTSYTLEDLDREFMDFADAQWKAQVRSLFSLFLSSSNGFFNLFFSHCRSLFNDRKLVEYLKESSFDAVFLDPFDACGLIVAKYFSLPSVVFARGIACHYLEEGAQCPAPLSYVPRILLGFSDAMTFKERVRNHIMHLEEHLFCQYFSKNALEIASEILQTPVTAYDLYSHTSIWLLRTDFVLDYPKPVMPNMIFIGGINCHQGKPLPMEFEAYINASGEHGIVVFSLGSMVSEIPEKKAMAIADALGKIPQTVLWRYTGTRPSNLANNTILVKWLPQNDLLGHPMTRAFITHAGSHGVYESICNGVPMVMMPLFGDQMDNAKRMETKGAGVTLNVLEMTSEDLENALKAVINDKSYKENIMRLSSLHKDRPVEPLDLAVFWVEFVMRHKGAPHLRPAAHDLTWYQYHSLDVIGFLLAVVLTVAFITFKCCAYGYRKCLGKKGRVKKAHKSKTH
Kind of series: Substrate of human UDP-glucuronosyltransferase UGT1A8.

The target in series [6] is T6, UDP-glucuronosyltransferase 1A10 (Homo sapiens, UniProt Q9HAW8).
T6 sequence (Q9HAW8 whole entry): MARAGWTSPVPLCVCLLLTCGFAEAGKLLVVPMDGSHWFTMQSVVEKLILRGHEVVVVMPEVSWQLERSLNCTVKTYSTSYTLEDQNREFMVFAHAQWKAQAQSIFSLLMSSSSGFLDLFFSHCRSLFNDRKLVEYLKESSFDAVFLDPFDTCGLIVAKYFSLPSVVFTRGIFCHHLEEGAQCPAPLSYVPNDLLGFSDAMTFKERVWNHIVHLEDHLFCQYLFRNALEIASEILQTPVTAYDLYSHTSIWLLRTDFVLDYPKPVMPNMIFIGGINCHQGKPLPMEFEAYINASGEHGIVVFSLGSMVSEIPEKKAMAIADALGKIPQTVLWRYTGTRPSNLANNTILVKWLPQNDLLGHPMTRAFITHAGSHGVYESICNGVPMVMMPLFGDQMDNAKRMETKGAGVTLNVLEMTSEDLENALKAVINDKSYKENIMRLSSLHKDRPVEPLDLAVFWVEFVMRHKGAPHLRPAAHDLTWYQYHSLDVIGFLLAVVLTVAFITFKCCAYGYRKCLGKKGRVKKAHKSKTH
Description: Substrate of human UDP-glucuronosyltransferase UGT1A10.

Series [7] has as its target T7, UDP-glucuronosyltransferase 1A1 (Homo sapiens, UniProt P22309).
T7 sequence (P22309 whole entry): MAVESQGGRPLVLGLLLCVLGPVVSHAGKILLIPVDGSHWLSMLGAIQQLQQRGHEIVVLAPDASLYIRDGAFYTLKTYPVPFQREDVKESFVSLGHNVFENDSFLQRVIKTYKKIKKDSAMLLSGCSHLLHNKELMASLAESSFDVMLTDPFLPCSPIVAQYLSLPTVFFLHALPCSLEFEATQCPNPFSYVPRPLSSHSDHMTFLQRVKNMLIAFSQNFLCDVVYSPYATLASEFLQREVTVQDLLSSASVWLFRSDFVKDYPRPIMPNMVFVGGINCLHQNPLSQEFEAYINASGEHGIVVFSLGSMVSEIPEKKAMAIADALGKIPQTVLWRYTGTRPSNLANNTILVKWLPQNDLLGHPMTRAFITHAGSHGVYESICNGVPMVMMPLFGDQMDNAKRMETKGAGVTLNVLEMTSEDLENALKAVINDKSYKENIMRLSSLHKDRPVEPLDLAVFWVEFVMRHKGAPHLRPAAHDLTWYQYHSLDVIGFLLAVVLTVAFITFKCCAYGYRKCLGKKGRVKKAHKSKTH
Kind of series: Substrate of human UDP-glucuronosyltransferase UGT1A1.

In series [8] the target is T8, UDP-glucuronosyltransferase 2B7 (Homo sapiens, UniProt P16662).
T8 sequence (P16662 whole entry): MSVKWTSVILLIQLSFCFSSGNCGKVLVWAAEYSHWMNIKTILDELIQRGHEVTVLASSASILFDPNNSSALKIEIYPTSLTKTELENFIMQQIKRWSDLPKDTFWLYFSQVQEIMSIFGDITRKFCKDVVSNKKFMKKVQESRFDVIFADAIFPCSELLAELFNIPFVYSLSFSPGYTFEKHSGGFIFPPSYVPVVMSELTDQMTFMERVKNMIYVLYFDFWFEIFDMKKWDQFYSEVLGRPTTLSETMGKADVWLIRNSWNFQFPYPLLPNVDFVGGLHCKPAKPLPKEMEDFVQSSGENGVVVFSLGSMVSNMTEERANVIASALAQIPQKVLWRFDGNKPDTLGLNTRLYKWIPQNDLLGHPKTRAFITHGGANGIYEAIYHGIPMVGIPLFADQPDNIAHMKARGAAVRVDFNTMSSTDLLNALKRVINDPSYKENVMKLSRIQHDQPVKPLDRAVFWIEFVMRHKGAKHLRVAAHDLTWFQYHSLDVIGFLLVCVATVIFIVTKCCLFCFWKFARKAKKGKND
Description: Substrate of human UDP-glucuronosyltransferase UGT2B7.

For series [9], the target named is T9, Glutathione S-transferase A4 (Homo sapiens, UniProt O15217).
T9 sequence (O15217 whole entry): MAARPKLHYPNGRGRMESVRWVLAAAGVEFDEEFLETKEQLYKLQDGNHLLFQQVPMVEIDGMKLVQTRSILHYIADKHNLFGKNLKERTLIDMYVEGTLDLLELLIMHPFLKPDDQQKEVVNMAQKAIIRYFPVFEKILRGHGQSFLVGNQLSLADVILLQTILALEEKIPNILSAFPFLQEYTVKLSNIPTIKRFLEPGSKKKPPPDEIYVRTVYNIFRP
Kind of series: Substrates for human cytosolic glutathione transferase GSTA4.

In a further series the target is T10, Sulfotransferase 1E1 (Homo sapiens, UniProt P49888).
T10 sequence (P49888 whole entry): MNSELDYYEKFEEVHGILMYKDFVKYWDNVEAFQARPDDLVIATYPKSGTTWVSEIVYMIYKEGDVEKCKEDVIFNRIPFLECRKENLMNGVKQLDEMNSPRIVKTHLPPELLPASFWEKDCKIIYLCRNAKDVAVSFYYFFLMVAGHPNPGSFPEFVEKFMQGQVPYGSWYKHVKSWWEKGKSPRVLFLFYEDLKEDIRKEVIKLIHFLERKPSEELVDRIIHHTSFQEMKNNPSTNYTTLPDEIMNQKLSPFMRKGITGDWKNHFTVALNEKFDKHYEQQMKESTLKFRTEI
Kind of series: Major substrate of human cytosolic sulfotransferase SULT1E1.

With `CCc1c2c(nc3ccc(O)cc13)-c1cc3c(c(=O)n1C2)COC(=O)[C@]3(O)CC` [7-ETHYL-10-HYDROXYCAMPTOTHECIN], the Activity entry in series [1], in series [2] and in series [3] was “Substrate” throughout.

On to `C[C@]12CC[C@@H](O)C[C@@H]1CC[C@@H]1[C@@H]2CC[C@]2(C)C(=O)CC[C@@H]12` [ANDROSTERONE], for which the Activity result in series [4] is “Substrate”. Take `C[C@H](CCC(=O)O)[C@H]1CC[C@H]2[C@@H]3C[C@H](O)[C@@H]4C[C@H](O)CC[C@]4(C)[C@H]3CC[C@]12C` [HYODEOXYCHOLIC_ACID]: the Activity entry in series [4] was “Substrate”.

Consider `COc1c(C)c2c(c(O)c1C/C=C(\C)CCC(=O)O)C(=O)OC2` [MYCOPHENOLIC ACID], for which the Activity result in [5], in [3] and in series [6] was “Substrate” throughout. For the molecule `COc1ccccc1OCCNCC(O)COc1cccc2[nH]c3ccccc3c12` (centres undefined) [CARVEDILOL], the Activity entry in series [7], in series [8] and in series [4] was “Substrate” throughout. Consider `COc1ccc2c3c1O[C@H]1[C@@H](O)C=C[C@H]4[C@@H](C2)N(C)CC[C@@]341` [CODEINE], for which the Activity result in [4] is reported as “Substrate”. With `C[C@]12CC[C@@H]3c4ccc(O)cc4CC[C@H]3[C@@H]1C[C@@H](O)[C@@H]2O` [ESTRIOL], the Activity result in series [2] and in series [4] was “Substrate” throughout. Regarding `C=C(CC)C(=O)c1ccc(OCC(=O)O)c(Cl)c1Cl` [ETHACRYNIC ACID], the Activity result in series [9] is listed as “Substrate”. As to `C[C@]12CC[C@@H]3c4ccc(O)c(O)c4CC[C@H]3[C@@H]1CCC2=O`, the Activity result (on Sulfotransferase 1E1; in [3]) was “Substrate” throughout. With `CCCCCCC(O)/C=C/C=O` (centres undefined), the Activity result in [9] was “Substrate”. The same measure, in the same setting: to `CCCCCC(O)/C=C/C=O` (centres undefined) [4-HYDROXYNON-2-ENAL] belongs “Substrate”.
